Experimental data: ChEMBL document CHEMBL1201862, “PubChem BioAssay data set” (2004)
Activity calls are given as the source filed them.

How the values were obtained:
[1] = target: T1, Zinc finger protein mex-5 (Caenorhabditis elegans, UniProt Q9XUB2); assay: MEX-5/TCR-2 RNA interaction inhibitors, dose response, biochemical, C. elegans, fluorescence polarization (AID 1960)
T1 sequence (Q9XUB2 whole entry): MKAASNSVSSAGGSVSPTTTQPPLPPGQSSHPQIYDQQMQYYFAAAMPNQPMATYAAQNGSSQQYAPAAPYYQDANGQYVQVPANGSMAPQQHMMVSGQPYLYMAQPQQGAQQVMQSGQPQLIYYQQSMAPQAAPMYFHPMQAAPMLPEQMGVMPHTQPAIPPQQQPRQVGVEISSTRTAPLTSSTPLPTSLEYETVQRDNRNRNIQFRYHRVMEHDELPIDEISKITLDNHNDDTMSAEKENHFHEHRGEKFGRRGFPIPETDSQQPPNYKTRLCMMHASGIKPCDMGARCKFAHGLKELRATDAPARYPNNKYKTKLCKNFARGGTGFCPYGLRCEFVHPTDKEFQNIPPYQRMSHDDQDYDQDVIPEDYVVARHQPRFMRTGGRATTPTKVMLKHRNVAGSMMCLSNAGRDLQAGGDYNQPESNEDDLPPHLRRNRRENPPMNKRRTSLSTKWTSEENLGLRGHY

[2] = Escherichia coli growth inhibition, dose response, counter-screen for MEX-5/POS-1 RNA-binding inhibitor project, luminescence, NEB5alpha (AID 1959); assay type: functional
[3] = target: T2, RNA-binding protein pos-1 (Caenorhabditis elegans, UniProt G5EF15); assay: inhibitors of POS-1/mex-3 RNA binding, dose response, biochemical, fluorescence polarization (AID 1964);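 also: purified POS-1 fused to maltose binding protein made in E. coli; potency of compounds blocking POS-1 binding to fluorescent RNA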
T2 sequence (G5EF15 whole entry): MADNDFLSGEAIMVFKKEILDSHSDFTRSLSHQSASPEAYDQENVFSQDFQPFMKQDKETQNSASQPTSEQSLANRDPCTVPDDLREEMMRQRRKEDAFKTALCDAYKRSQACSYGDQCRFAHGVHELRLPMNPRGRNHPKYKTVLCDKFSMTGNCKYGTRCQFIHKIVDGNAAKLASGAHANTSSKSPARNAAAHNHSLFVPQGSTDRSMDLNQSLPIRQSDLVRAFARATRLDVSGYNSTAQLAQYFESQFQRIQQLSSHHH

[4] = target: Cytochrome P450 2C19 (Homo sapiens, UniProt P33261); assay: qHTS Assay for Inhibitors and Substrates of Cytochrome P450 2C19. [Related pubchem assays: 410 ]; assay type: ADME; conditions: read-out: Potency
Chain of Cytochrome P450 2C19 (P33261 whole entry): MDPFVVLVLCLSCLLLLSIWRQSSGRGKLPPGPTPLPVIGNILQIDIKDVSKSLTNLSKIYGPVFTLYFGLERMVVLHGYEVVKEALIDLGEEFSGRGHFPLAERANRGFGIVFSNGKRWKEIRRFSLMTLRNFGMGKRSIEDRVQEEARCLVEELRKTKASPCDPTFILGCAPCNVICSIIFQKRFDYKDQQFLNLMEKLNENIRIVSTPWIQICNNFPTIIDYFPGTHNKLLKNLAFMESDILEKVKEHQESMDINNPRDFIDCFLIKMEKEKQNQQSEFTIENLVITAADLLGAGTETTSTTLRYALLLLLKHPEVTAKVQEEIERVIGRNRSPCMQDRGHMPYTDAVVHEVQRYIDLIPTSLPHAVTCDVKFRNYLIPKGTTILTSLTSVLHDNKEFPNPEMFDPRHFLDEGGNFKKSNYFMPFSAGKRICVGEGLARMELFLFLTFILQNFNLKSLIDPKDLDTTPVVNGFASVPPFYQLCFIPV

[5] = target: Dual specificity protein phosphatase 6 (Rattus norvegicus, UniProt Q64346); assay: MKP-3 phosphatase inhibitors, primary screen, biochemical, rat enzyme, in vitro (AID 425)
Chain of Dual specificity protein phosphatase 6 (Q64346 whole entry): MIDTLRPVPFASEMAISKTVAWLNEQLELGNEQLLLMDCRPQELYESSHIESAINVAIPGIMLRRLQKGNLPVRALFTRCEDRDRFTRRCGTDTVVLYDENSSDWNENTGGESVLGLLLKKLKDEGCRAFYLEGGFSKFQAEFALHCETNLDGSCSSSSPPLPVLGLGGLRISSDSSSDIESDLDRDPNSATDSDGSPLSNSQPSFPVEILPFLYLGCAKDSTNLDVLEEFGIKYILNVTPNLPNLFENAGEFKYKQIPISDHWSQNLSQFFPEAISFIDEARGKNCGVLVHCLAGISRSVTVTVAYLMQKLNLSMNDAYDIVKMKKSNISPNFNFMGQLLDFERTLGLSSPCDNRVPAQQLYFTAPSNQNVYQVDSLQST

[6] = target: T3, Bcl-2-related protein A1 (Mus musculus, UniProt Q07440); assay: Bfl-1 inhibitors blocking BH3 peptide binding, confirmation, biochemical, TR-FRET, mouse Bfl-1 (AID 621);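 also: TR-FRET binding of GST-Bfl-1 to FITC-labelled Bid peptide via terbium antibody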
T3 sequence (Q07440 whole entry): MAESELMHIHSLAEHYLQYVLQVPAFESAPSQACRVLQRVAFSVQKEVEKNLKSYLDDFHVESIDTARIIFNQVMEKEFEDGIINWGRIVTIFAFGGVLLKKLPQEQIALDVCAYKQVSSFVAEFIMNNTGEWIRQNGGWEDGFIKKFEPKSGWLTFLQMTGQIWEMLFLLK

[7] = target: T3, Bcl-2-related protein A1; assay: Bfl-1 binding inhibitors, SAR follow-up, biochemical, fluorescence polarization (AID 1070)
[8] = target: T4, Protein skinhead-1 (Caenorhabditis elegans, UniProt P34707); assay type: functional
T4 sequence (P34707 whole entry): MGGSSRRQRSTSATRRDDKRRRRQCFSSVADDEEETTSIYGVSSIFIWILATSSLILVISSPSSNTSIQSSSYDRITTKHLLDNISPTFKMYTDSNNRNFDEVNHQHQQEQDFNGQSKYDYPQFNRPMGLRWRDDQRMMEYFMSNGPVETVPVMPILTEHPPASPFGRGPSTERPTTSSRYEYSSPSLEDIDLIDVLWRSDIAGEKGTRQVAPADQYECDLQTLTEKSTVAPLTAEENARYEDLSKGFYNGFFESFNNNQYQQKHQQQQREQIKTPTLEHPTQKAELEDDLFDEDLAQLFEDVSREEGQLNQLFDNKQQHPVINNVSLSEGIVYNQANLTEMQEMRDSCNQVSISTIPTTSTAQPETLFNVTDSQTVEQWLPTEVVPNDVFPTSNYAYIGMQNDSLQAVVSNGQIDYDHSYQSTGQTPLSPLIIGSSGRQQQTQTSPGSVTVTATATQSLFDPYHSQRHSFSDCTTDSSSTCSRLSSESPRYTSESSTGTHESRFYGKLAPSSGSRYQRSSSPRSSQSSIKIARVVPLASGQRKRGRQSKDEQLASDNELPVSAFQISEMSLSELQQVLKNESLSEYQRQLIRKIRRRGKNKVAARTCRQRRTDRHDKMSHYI

[9] = target: Procathepsin L (Homo sapiens, UniProt P07711); assay: cathepsin L inhibitors, dose response, counter-screen for M1/M17 aminopeptidase inhibitor project, biochemical, QFRET, 1536-well (AID 2214)
Chain of Procathepsin L (P07711 whole entry): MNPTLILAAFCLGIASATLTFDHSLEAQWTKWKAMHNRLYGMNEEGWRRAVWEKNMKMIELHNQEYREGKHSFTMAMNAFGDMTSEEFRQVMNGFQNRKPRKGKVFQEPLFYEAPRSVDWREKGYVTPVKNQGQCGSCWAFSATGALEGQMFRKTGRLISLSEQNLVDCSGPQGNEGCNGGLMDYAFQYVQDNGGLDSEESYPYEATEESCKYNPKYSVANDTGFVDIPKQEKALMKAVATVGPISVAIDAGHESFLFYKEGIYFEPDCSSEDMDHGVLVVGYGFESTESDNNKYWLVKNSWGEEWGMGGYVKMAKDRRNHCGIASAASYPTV

[10] = target: T5, Leucine aminopeptidase (Plasmodium falciparum 3D7, UniProt Q8IL11); assay: P. falciparum M17LAP inhibitors, primary screen, biochemical, fluorogenic H-Leu-NHMec substrate, 1536-well (AID 1619); assay type: functional
T5 sequence (Q8IL11 whole entry): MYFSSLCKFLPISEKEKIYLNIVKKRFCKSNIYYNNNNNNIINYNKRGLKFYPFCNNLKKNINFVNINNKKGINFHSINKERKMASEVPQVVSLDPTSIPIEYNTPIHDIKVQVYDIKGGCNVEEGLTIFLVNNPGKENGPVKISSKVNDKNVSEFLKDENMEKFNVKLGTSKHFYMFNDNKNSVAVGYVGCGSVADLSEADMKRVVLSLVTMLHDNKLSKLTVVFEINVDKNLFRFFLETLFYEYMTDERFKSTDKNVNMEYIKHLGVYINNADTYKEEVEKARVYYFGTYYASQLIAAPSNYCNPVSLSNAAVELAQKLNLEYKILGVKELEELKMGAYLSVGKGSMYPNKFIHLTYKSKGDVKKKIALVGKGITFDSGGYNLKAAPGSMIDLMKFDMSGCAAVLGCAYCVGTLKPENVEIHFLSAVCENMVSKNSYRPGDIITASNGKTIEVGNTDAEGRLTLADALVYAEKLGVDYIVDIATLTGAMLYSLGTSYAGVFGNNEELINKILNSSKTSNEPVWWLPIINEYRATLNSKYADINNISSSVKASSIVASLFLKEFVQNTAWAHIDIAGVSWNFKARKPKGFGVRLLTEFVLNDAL

[11] = target: T6, Aspartyl aminopeptidase (Plasmodium falciparum 3D7, UniProt Q8I2J3); assay: Counterscreen for inhibitors of M1 and M17 aminopeptidases: QFRET-based biochemical high throughput dose response assay for inhibitors of the Plasmodium falciparum M18 Aspartyl Aminopeptidase (PFM18AAP). [Related PubChem assays: 1619 (Screening assay (M17LAP inhibitors).), 1445 (Screening assay (M1AAP inhibitors).)]
T6 sequence (Q8I2J3 whole entry): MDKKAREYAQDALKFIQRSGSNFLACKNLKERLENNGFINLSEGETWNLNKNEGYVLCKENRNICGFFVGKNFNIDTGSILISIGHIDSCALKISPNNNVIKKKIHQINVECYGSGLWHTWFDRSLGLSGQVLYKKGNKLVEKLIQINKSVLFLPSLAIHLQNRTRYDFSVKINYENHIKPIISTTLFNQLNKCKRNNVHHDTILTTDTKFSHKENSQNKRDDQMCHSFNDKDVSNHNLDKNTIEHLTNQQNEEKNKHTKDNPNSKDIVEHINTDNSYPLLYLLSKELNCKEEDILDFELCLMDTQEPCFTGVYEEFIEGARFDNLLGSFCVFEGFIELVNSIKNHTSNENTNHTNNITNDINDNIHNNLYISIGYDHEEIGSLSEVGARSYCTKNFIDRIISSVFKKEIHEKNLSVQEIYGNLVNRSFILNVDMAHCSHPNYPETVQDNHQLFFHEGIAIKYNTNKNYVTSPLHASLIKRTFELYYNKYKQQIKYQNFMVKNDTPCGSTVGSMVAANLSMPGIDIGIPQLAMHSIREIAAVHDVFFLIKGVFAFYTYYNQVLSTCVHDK

[12] = target: Prothrombin (Homo sapiens, UniProt P00734); assay: Thrombin 1536 HTS Dose Response Confirmation. [Related pubchem assays: 1046 (Thrombin 1536 HTS; hits were confirmed in this assay)]; assay type: functional

With `NC(=O)c1ccccc1N/C=C/C(=O)c1ccc(F)cc1` the EC50 [1] was > 300 µM (not active), the EC50 [2] was 23 µM (active) and the EC50 [3] was > 300 µM (not active).

With `C[C@@]12CCC(=O)C=C1CC[C@H]1[C@H]3CC[C@](O)(C(=O)CO)[C@]3(C)CC[C@@H]12` the AC50 [4] was 10 µM (inconclusive).

For `CCCCOc1ccccc1P(=O)(O)CP(=O)(c1ccccc1)c1ccccc1`, the IC50 [5] was > 100 µM (not active).

For `COc1ncccc1-c1nnn(-c2ccc(Cl)nc2)n1`, the IC50 [6] was > 100 µM (not active) and the IC50 [7] was > 100 µM (not active).

In the case of `O=C(CSc1nc(O)cc(O)n1)Nc1ccc2c(c1)CCC2`, the IC50 [8] is reported as > 100 µM (inactive), the IC50 [9] is reported as > 59.6 µM (not active) and the IC50 [10] is reported as 2.01 µM (active). The IC50 [11] was > 73.5 µM (not active).

In the case of `COc1ccc(NC(=O)Cc2ccccc2F)cn1`, the IC50 [12] is reported as > 50 µM (not active).
